Experimental data from publication PMC2946983 (Bioorganic & medicinal chemistry, 2010).

Key:
[1] = target: T1, cloned human serotonin 5-HT1A receptor (Homo sapiens, UniProt P08908); experiment: radioligand binding; conditions: for affinity for 5-HT1A receptor: stated in words
T1 sequence (P08908 1-422): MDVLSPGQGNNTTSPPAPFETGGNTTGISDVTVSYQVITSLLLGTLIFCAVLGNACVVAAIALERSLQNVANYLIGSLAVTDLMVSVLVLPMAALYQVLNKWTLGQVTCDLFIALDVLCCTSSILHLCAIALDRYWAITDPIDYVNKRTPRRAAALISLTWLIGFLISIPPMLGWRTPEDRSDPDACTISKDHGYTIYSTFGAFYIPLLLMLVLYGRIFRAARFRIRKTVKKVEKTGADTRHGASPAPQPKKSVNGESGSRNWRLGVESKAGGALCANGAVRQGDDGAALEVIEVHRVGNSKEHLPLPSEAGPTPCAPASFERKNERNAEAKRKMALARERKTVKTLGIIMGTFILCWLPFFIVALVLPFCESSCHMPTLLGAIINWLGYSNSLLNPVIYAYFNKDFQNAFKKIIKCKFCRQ

[2] = target: cloned human serotonin 5-HT2A receptor (Homo sapiens, UniProt P28223); experiment: radioligand binding; conditions: for Binding Affinity (Ki nM) 5-HT2A±SEM: n = 3, ND = not detected at highest concentration tested
Sequence of cloned human serotonin 5-HT2A receptor (P28223 whole entry): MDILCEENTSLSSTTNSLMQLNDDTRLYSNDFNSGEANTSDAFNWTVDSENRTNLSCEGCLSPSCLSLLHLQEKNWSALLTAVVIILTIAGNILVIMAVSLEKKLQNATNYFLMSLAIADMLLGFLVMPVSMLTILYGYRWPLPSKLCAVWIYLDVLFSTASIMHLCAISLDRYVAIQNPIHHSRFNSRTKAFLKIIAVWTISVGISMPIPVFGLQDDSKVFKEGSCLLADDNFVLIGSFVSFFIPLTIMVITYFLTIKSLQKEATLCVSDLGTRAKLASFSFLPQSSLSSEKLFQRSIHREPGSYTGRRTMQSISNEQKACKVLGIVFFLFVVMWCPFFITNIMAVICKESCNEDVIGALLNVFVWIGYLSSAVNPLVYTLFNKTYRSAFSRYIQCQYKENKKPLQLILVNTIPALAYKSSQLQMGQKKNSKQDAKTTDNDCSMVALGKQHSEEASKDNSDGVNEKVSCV

[3] = target: T2, cloned human serotonin 5-HT2C receptor (Homo sapiens, UniProt P28335); experiment: radioligand binding
T2 sequence (P28335 33-458): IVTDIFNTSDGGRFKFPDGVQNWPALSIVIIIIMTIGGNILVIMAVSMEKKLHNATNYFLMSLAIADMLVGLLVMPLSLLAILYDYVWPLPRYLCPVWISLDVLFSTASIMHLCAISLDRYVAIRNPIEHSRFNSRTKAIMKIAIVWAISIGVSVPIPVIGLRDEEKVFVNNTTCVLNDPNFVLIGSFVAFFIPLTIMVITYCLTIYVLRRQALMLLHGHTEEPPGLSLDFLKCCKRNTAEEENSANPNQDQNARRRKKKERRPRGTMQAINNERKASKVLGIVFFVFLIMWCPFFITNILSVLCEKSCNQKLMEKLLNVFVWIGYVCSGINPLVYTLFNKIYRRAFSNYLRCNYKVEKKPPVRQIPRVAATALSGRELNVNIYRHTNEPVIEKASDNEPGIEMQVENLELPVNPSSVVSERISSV

[4] = system: human serotonin 5-HT2C receptor; conditions: isolated natural product; cited from earlier work
[5] = read-out: radioligand affinity KD ± S.D., saturation isotherm

Row | Compound | affinity for 5-HT1A receptor [1] | Binding Affinity (Ki nM) 5-HT2A±SEM [2] | also measured
1 | CN1C(=N)NC(=O)/C1=C\c1c[nH]c2cc(Cl)c(Cl)cc12 [Compound 4, (E)-2-amino-5-[(5,6-dichloro-1H-indol-3-yl)methylene]-1-methyl-1H-imidazol-4(5H)-one] | little or no apparent affinity | little or no apparent affinity | Binding Affinity (Ki nM) 5-HT2C±SEM ([3]; n = 3): little or no apparent affinity
2 | CN1CN(c2ccccc2)C2(CCN(CCCC(=O)c3ccc(F)cc3)CC2)C1=O [[^3H]methylspiperone, N-Methyl-8-[4-(4-fluorophenyl)-4-oxobutyl]-1-phenyl-1,3,8-triazaspiro-[4.5]decan-4-one, reference compound] | – | – | Kd [2, 5]: 0.246 ± 0.042 nM
3 | CN1C(=N)N(C)/C(=C/c2c[nH]c3cc(Br)ccc23)C1=O [Compound 15, 5-(6-bromo-1H-indol-3-ylmethylene)-2-imino-1,3-dimethyl-imidazolidin-4-one] | – | not detectable | Ki Selectivity Ratio 5-HT2A/5-HT2C [3]: >45
4 | CN1C(=N)NC(=Cc2c[nH]c3cc(Br)ccc23)C1=O [6-bromo-2′-de-N-methylaplysinopsin] | – | – | selectivity for 5-HT2C over 5-HT2A receptor [4]: > 40 fold
5 | CN1C(=N)N(C)/C(=C/c2c[nH]c3cc(Cl)c(Cl)cc23)C1=O [Compound 16, (E)-5-[(5,6-dichloro-1H-indol-3-yl)methylene]-2-imino-1,3-dimethylimidazolidin-4-one] | no detectable affinity | no detectable affinity | –
6 | CN1C(=N)N(C)/C(=C/c2c[nH]c3cc(Cl)ccc23)C1=O [Compound 14, (E)-5-[(6-chloro-1H-indol-3yl)methylene]-2-imino-1,3-dimethylimidazolidin-4-one] | lack of affinity | lack of affinity | –
7 | COc1ccccc1N1CCN(CCN(C(=O)c2ccc(F)cc2)c2ccccn2)CC1 [[^3H]MPPF, 4-(2′-Methoxy)-phenyl-1-[2′-(N-2″-pyridinyl)-p-fluorobenzamido]ethyl-piperazine, reference compound] | – | – | Kd [1, 5]: 0.267 ± 0.036 nM
